Results: ChEMBL document CHEMBL6087397, “H2S-releasing oridonin derivatives with improved antitumor activity by inhibiting the PI3K/AKT pathway” (Bioorg Med Chem, 2024)
pIC50: −log10 of the molar value. Active and inactive are the calls of the source. The rule behind the calls is not given here.

Tests used:
MCF7 [1] = assay: Antiproliferative activity against human MCF7 cells assessed as inhibition of cell proliferation incubated for 48 hrs by CCK-8 assay; format: functional, cell-based; conditions: MCF7, 48 h
A549 = assay: Antiproliferative activity against human A549 cells assessed as inhibition of cell proliferation incubated for 48 hrs by CCK-8 assay; format: functional, cell-based; conditions: A549, 48 h
PANC-1 = assay: Antiproliferative activity against human PANC-1 cells assessed as inhibition of cell proliferation incubated for 48 hrs by CCK-8 assay; format: functional, cell-based; conditions: PANC-1, 48 h
MIA PaCa-2 [2] = assay: Antiproliferative activity against human MIA PaCa-2 cells assessed as inhibition of cell proliferation incubated for 48 hrs by CCK-8 assay; format: functional, cell-based; conditions: MIA PaCa-2, 48 h
MCF7 [3] = assay: Inhibition of cell migration in human MCF7 cells assessed as wider scratch areas incubated for 48 hrs by scratch assay; format: functional, cell-based; conditions: dose 0.5-1 µM
MIA PaCa-2 [4] = assay: Inhibition of cell invasion in human MIA PaCa-2 cells assessed as decrease in number of invading cells at 0.5 to 1.0 uM incubated for 48 hrs by crystal violet staining based transwell microscopic analysis relative to control; format: functional; conditions: dose 0.5-1 µM
MCF7 [5] = assay: Induction of cell cycle arrest in human MCF7 cells assessed as increase in accumulation of cells at G2/M phase at 5 uM incubated for 48 hrs by PI staining based flow cytometric analysis (reference value: 6.7%); format: functional
MCF7 [6] = assay: Induction of cell cycle arrest in human MCF7 cells assessed as increase in accumulation of cells at G2/M phase at 10 uM incubated for 48 hrs by PI staining based flow cytometric analysis (reference value: 6.7%); format: functional
MIA PaCa-2 [7] = assay: Induction of cell cycle arrest in human MIA PaCa-2 cells assessed as increase in accumulation of cells at S phase at 2.5 uM incubated for 48 hrs by PI staining based flow cytometric analysis (reference value: 9.38%); format: functional
MIA PaCa-2 [8] = assay: Induction of cell cycle arrest in human MIA PaCa-2 cells assessed as increase in accumulation of cells at S phase at 5.0 uM incubated for 48 hrs by PI staining based flow cytometric analysis (reference value: 9.38%); format: functional
MCF7 [9] = assay: Induction of apoptosis in human MCF7 cells assessed as early apoptotic cells at 10 uM incubated for 48 hrs by Annexin V-FITC/PI staining based flow cytometric analysis (reference value: 20.2%); format: functional
MCF7 [10] = assay: Induction of apoptosis in human MCF7 cells assessed as late apoptotic cells at 20 uM incubated for 48 hrs by Annexin V-FITC/PI staining based flow cytometric analysis (reference value: 20.2%); format: functional
MCF7 [11] = assay: Induction of apoptosis in human MCF7 cells assessed as increase in nuclear fragmentation at 2.5 uM incubated for 48 hrs by Hoechst 33342 staining based fluorescence microscopic analysis; format: functional, cell-based
MIA PaCa-2 [12] = assay: Induction of apoptosis in human MIA PaCa-2 cells assessed as increase in fluorescence intensity at 2.5 uM incubated for 48 hrs by Hoechst 33342 staining based fluorescence microscopic analysis; format: functional, cell-based
MIA PaCa-2 [13] = assay: Induction of apoptosis in human MIA PaCa-2 cells assessed as early apoptotic cells at 10 uM incubated for 48 hrs by Annexin V-FITC/PI staining based flow cytometric analysis (reference value: 7.3%); format: functional
MCF7 [14] = assay: Induction of mitochondrial dysfunction in human MCF7 cells assessed as decrease in MMP level at 2.5 to 5.0 uM by measuring green fluorescence incubated for 48 hrs by JC-1 staining based flow cytometric analysis; format: functional, cell-based; conditions: dose 2.5-5 µM
MIA PaCa-2 [15] = assay: Induction of mitochondrial dysfunction in human MIA PaCa-2 cells assessed as decrease in MMP level at 2.5 to 5.0 uM by measuring green fluorescence incubated for 48 hrs by JC-1 staining based flow cytometric analysis; format: functional, cell-based; conditions: dose 2.5-5 µM
MCF7 [16] = assay: Induction of mitochondrial dysfunction in human MCF7 cells assessed as decrease in ATP level incubated for 48 hrs by ATP assay kit; format: functional, cell-based; conditions: dose 2.5-10 µM
MIA PaCa-2 [17] = assay: Induction of mitochondrial dysfunction in human MIA PaCa-2 cells assessed as decrease in ATP level incubated for 48 hrs by ATP assay kit; format: functional, cell-based; conditions: dose 2.5-10 µM
MCF7 [18] = assay: Induction of apoptosis in human MCF7 cells assessed as increase in cleaved caspase-9 level at 1.25 to 5.0 uM incubated for 48 hrs by Western blotting analysis; format: functional, cell-based; conditions: dose 1.25-5 µM
MCF7 [19] = assay: Induction of apoptosis in human MCF7 cells assessed as increase in cleaved caspase-3 level at 1.25 to 5.0 uM incubated for 48 hrs by Western blotting analysis; format: functional, cell-based; conditions: dose 1.25-5 µM
MCF7 [20] = assay: Induction of apoptosis in human MCF7 cells assessed as increase in cleaved PARP level at 1.25 to 5.0 uM incubated for 48 hrs by Western blotting analysis; format: functional, cell-based; conditions: dose 1.25-5 µM
MCF7 [21] = assay: Induction of mitochondrial apoptosis pathway in human MCF7 cells assessed as downregulation of pro-caspase-3 expression at 1.25 to 5.0 uM incubated for 48 hrs by Western blotting analysis; format: functional, cell-based; conditions: dose 1.25-5 µM
MCF7 [22] = assay: Induction of mitochondrial apoptosis pathway in human MCF7 cells assessed as downregulation of pro-caspase-9 expression at 1.25 to 5.0 uM incubated for 48 hrs by Western blotting analysis; format: functional, cell-based; conditions: dose 1.25-5 µM
MIA PaCa-2 [23] = assay: Induction of apoptosis in human MIA PaCa-2 cells assessed as upregulation of Cyt-C expression at 1.25 to 5.0 uM incubated for 48 hrs by Western blotting analysis; format: functional, cell-based; conditions: dose 1.25-5 µM
MIA PaCa-2 [24] = assay: Induction of apoptosis in human MIA PaCa-2 cells assessed as upregulation of cleaved caspase-9 expression at 1.25 to 5.0 uM incubated for 48 hrs by Western blotting analysis; format: functional, cell-based; conditions: dose 1.25-5 µM
MIA PaCa-2 [25] = assay: Induction of apoptosis in human MIA PaCa-2 cells assessed as upregulation of cleaved caspase-3 expression at 1.25 to 5.0 uM incubated for 48 hrs by Western blotting analysis; format: functional, cell-based; conditions: dose 1.25-5 µM
4T1 [26] = assay: Antitumor activity against mouse 4T1 cells xenografted in female BALB/c mouse assessed as reduction in tumor volume at 10 mg/kg, ip administered every 2 days; format: functional, organism-based
4T1 [27] = assay: Antitumor activity against mouse 4T1 cells xenografted in female BALB/c mouse assessed as tumor inhibition rate at 10 mg/kg, ip administered every 2 days relative to control; format: functional; conditions: 4T1, 48 h, read-out: TGI
[28] = Toxicity in female BALB/c mouse xenografted with mouse 4T1 cells assessed as change in body weight at 10 mg/kg, ip administered every 2 days; format: organism-based; conditions: in vivo, 48 h
[29] = Toxicity in female BALB/c mouse xenografted with mouse 4T1 cells assessed as morphological change in liver at 10 mg/kg, ip administered every 2 days by H and E staining based analysis; format: organism-based; conditions: in vivo, 48 h
[30] = Toxicity in female BALB/c mouse xenografted with mouse 4T1 cells assessed as morphological change in lung at 10 mg/kg, ip administered every 2 days by H and E staining based analysis; format: organism-based; conditions: in vivo, 48 h
[31] = Toxicity in female BALB/c mouse xenografted with mouse 4T1 cells assessed as morphological change in spleen at 10 mg/kg, ip administered every 2 days by H and E staining based analysis; format: organism-based; conditions: in vivo, 48 h
[32] = Toxicity in female BALB/c mouse xenografted with mouse 4T1 cells assessed as morphological change in kidney at 10 mg/kg, ip administered every 2 days by H and E staining based analysis; format: organism-based; conditions: in vivo, 48 h

In the case of `C=C1C(=O)[C@]23[C@H](OC(=O)c4ccc(N=C=S)cc4)[C@H]1CC[C@H]2[C@@]12CO[C@]3(O)[C@@H](O)[C@@H]1C(C)(C)CC[C@@H]2O`, the pIC50 (MCF7 [1]) was 5.46, the pIC50 (A549) was 4.75 and the pIC50 (PANC-1) was 4.75. The pIC50 (MIA PaCa-2 [2]) was 5.67, the inhibition (MCF7 [3]) was “Dose-dependent-effect” and the “inhibition (INH)” value (MIA PaCa-2 [4]) was ~70%. The Activity (MCF7 [5]) was 11.5%, the Activity (MCF7 [6]) was 14% and the Activity (MIA PaCa-2 [7]) was 36%. The Activity (MIA PaCa-2 [8]) was 46.9%, the Activity (MCF7 [9]) was 37% and the Activity (MCF7 [10]) was 57%. For the same compound, the Activity (MCF7 [11]) was “Active”, the Activity (MIA PaCa-2 [12]) was “Active” and the Activity (MIA PaCa-2 [13]) was 56.8%. The Activity (MCF7 [14]) was “Active”, the Activity (MIA PaCa-2 [15]) was “Active” and the Activity (MCF7 [16]) was “Dose-dependent-effect”. The Activity (MIA PaCa-2 [17]) was “Dose-dependent-effect”, the Activity (MCF7 [18]) was “Active” and the Activity (MCF7 [19]) was “Active”. The Activity (MCF7 [20]) was “Active”, the Activity (MCF7 [21]) was “Active” and the Activity (MCF7 [22]) was “Active”. The Activity (MIA PaCa-2 [23]) was “Active”, the Activity (MIA PaCa-2 [24]) was “Active” and the Activity (MIA PaCa-2 [25]) was “Active”. The Activity (4T1 [26]) was “Active”, the inhibition in vivo at 10 mg/kg (4T1 [27]) was 34.3% and the Activity [28] was “Non-toxic”. The Activity [29] was “Non-toxic”, the Activity [30] was “Non-toxic” and the Activity [31] was “Non-toxic”. The Activity [32] was “Non-toxic”.
